# According to patent publication US11927590B2, “Methods and systems for screening therapeutic compositions for treating age-related macular degeneration” (ARIZONA BOARD OF REGENTS ON BEHALF OF THE UNIVERSITY OF …, priority 2020, dated 2024):
# System: retinal pigment epithelial (RPE) cells
# Test: RPE exosome release
# Format: cell-based
# Conditions: RPE cells incubated in media (DMEM) plus L-DOPA versus media alone (FIG. 3A)
# Source text: Exosomes released from retinal pigment epithelial (RPE) cells can be isolated. […] Cells and cell debris are removed and exosomes are then purified. Note the present invention is not limited to this particular method of exosome isolation. In certain embodiments of the present invention, exosomes are not isolated for the measurement of levels of exosomes released from RPE cells. […] FIG. 3B illustrates GPR143 exosome release and its inhibition by L-DOPA. FIG. 4A and FIG. 4B show RPE exosome release studies in response to 30 minute treatments with 1 μM dopamine (FIG. 4A), 1 nM Dopamine 2 receptor (D2R) agonist (bromocriptine, FIG. 4B), and 1 nM Dopamine 2 receptor ([…]) antagonist (raclopride, FIG. 4B).
smiles,measurement,value
N[C@@H](Cc1ccc(O)c(O)c1)C(=O)O [L-DOPA],exosome release from RPE cells,significant reduction in exosome release
